≈ marks a conversion by molar mass, not a printed value. Read-outs that look alike come from different tables or passages of the source.
Key:
Test in all cases: in vitro antibacterial MIC, agar plate dilution
Format in all cases: cell-based
[1] = test system: Escherichia coli CMC 84-11; settings: Escherichia coli, CMC8411, 18 h, 35° C., read-out: MIC
How it was run: (§1)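 Minimal inhibitory concentrations came from agar plate dilution in Mueller-Hinton medium. Each organism was delivered at roughly 10^4 CFU by Steers replicator. Plates were read for visible growth after 18 hours at 35° C, values in mcg/ml.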

[2] = test system: Morganella morganii CMC 84-37; settings: Morganella morganii, CMC8437, 18 h, 35° C., read-out: MIC
How it was run: as §1

[3] = test system: Streptococcus faecalis VGH 84-69; settings: Enterococcus faecalis, VGH8469, 18 h, 35° C., read-out: MIC
How it was run: as §1

[4] = test system: Streptococcus faecalis CMC 83-120; settings: Enterococcus faecalis, CMC83120, 18 h, 35° C., read-out: MIC
How it was run: as §1

[5] = test system: Staphylococcus aureus Smith; settings: Staphylococcus aureus, 18 h, 35° C., read-out: MIC
How it was run: as §1

[6] = test system: Klebsiella pneumoniae IO 83-5; settings: Klebsiella pneumoniae, IO835, 18 h, 35° C., read-out: MIC
How it was run: as §1

Citrobacter div. K 82-24 = settings: Citrobacter, DIV.K8224, 18 h, 35° C., read-out: MIC
How it was run: as §1

[7] = test system: Pseudomonas aeruginosa VGH 84-3; settings: Pseudomonas aeruginosa, VGH843, 18 h, 35° C., read-out: MIC
How it was run: as §1

[8] = test system: Staphylococcus aureus VGH 84-45; settings: Staphylococcus aureus, VGH8445, 18 h, 35° C., read-out: MIC
How it was run: as §1

[9] = test system: Klebsiella pneumoniae MOR 84-24; settings: Klebsiella pneumoniae, MOR8424, 18 h, 35° C., read-out: MIC
How it was run: as §1

[10] = test system: Escherichia coli VGH 84-19; settings: Escherichia coli, VGH8419, 18 h, 35° C., read-out: MIC
How it was run: as §1

[11] = test system: Streptococcus faecalis UCI 85-19; settings: Enterococcus faecalis, UCI8519, 18 h, 35° C., read-out: MIC
How it was run: as §1

[12] = test system: Enterobacter cloacae VGH 84-39; settings: Enterobacter cloacae, VGH8439, 18 h, 35° C., read-out: MIC
How it was run: as §1

[13] = test system: Morganella morganii CMC 84-38; settings: Morganella morganii, CMC8438, 18 h, 35° C., read-out: MIC
How it was run: as §1

[14] = test system: Escherichia coli MOR 84-20; settings: Escherichia coli, MOR8420, 18 h, 35° C., read-out: MIC
How it was run: as §1

[15] = test system: Serratia marcescens CMC 83-74; settings: Serratia marcescens, CMC8374, 18 h, 35° C., read-out: MIC
How it was run: as §1

[16] = test system: Enterobacter cloacae MOR 84-30; settings: Enterobacter cloacae, MOR8430, 18 h, 35° C., read-out: MIC
How it was run: as §1

[17] = test system: Escherichia coli CMC 84-50; settings: Escherichia coli, CMC8450, 18 h, 35° C., read-out: MIC
How it was run: as §1

[18] = test system: Pseudomonas aeruginosa VGH 84-4; settings: Pseudomonas aeruginosa, VGH844, 18 h, 35° C., read-out: MIC
How it was run: as §1

[19] = test system: Staphylococcus aureus CMC 83-131; settings: Staphylococcus aureus, CMC83131, 18 h, 35° C., read-out: MIC
How it was run: as §1

[20] = test system: Enterobacter cloacae K 84-10; settings: Enterobacter cloacae, K8410, 18 h, 35° C., read-out: MIC
How it was run: as §1

Escherichia coli LL 311 = settings: Escherichia coli, LL311, 18 h, 35° C., read-out: MIC
How it was run: as §1

[21] = test system: Staphylococcus aureus VGH 84-47; settings: Staphylococcus aureus, VGH8447, 18 h, 35° C., read-out: MIC
How it was run: as §1

[22] = test system: Proteus rettgeri CMC 84-41; settings: Providencia rettgeri, CMC8441, 18 h, 35° C., read-out: MIC
How it was run: as §1

[23] = test system: Serratia marcescens K 84-18; settings: Serratia marcescens, K8418, 18 h, 35° C., read-out: MIC
How it was run: as §1

[24] = test system: Morganella morganii MOR 84-45; settings: Morganella morganii, MOR8445, 18 h, 35° C., read-out: MIC
How it was run: as §1

[25] = test system: Streptococcus faecalis VGH 84-65; settings: Enterococcus faecalis, VGH8465, 18 h, 35° C., read-out: MIC
How it was run: as §1

[26] = test system: Pseudomonas aeruginosa K 84-16; settings: Pseudomonas aeruginosa, K8416, 18 h, 35° C., read-out: MIC
How it was run: as §1

[27] = test system: Staphylococcus aureus ATTC 29213; settings: 35° C.
How it was run: as §1

[28] = test system: Providencia stuarti CMC 83-3; settings: Providencia, CMC833, 18 h, 35° C., read-out: MIC
How it was run: as §1

[29] = test system: Proteus rettgeri IO 83-21; settings: Providencia rettgeri, IO8321, 18 h, 35° C., read-out: MIC
How it was run: as §1

[30] = test system: Escherichia coli ATCC 25922; settings: 35° C.
How it was run: as §1

[31] = Staphylococcus aureus, ATTC29213, 18 h, read-out: MIC

MIC [1] | MIC [2] | MIC [3] | MIC [4] | MIC [5] | MIC [6] | MIC (Citrobacter div. K 82-24) | MIC [7] | MIC [8] | MIC [9] | MIC [10] | MIC [11] | MIC [12] | MIC [13] | MIC [14] | MIC [15] | MIC [16] | MIC [17] | MIC [18] | MIC [19] | SMILES | also measured
0.06 µg/mL (≈ 0.151 µM) | 1 µg/mL (≈ 2.52 µM) | 2 µg/mL (≈ 5.03 µM) | 5 µg/mL (≈ 12.6 µM) | 0.12 µg/mL (≈ 0.302 µM) | 1 µg/mL (≈ 2.52 µM) | 0.25 µg/mL (≈ 0.629 µM) | > 16 µg/mL | 0.5 µg/mL (≈ 1.26 µM) | 1 µg/mL (≈ 2.52 µM) | 0.25 µg/mL (≈ 0.629 µM) | 2 µg/mL (≈ 5.03 µM) | 0.5 µg/mL (≈ 1.26 µM) | 0.5 µg/mL (≈ 1.26 µM) | 0.25 µg/mL (≈ 0.629 µM) | > 16 µg/mL | 4 µg/mL (≈ 10.1 µM) | 0.25 µg/mL (≈ 0.629 µM) | 8 µg/mL (≈ 20.1 µM) | 2 µg/mL (≈ 5.03 µM) | O=C(O)c1cn(C2CC2)c2cc(N3CCNC(c4cc[nH]n4)C3)c(F)cc2c1=O (centres unmarked) [Example 121, 1-Cyclopropyl-6-fluoro-1,4-dihydro-4-oxo-7-[3-(1H-pyrazol-3-yl)-1-piperazinyl]-3-quinolinecarboxylic acid] | MIC [20]: 0.25 µg/mL (≈ 0.629 µM); MIC (Escherichia coli LL 311): 0.12 µg/mL (≈ 0.302 µM); MIC [21]: 1 µg/mL (≈ 2.52 µM); MIC [22]: 0.5 µg/mL (≈ 1.26 µM); MIC [23]: 0.25 µg/mL (≈ 0.629 µM); MIC [24]: 0.25 µg/mL (≈ 0.629 µM); MIC [25]: 2 µg/mL (≈ 5.03 µM); MIC [26]: > 16 µg/mL; MIC ([27]; 18 hours): 2 µg/mL (≈ 5.03 µM); MIC [27, 31]: 1 µg/mL (≈ 2.52 µM); MIC [28]: > 16 µg/mL; MIC [29]: 1 µg/mL (≈ 2.52 µM)
0.06 µg/mL (≈ 0.156 µM) | 0.25 µg/mL (≈ 0.649 µM) | 4 µg/mL (≈ 10.4 µM) | 4 µg/mL (≈ 10.4 µM) | 0.12 µg/mL (≈ 0.311 µM) | 0.5 µg/mL (≈ 1.3 µM) | 0.25 µg/mL (≈ 0.649 µM) | > 16 µg/mL | 0.12 µg/mL (≈ 0.311 µM) | 0.5 µg/mL (≈ 1.3 µM) | 0.25 µg/mL (≈ 0.649 µM) | 4 µg/mL (≈ 10.4 µM) | 0.5 µg/mL (≈ 1.3 µM) | 0.5 µg/mL (≈ 1.3 µM) | 0.25 µg/mL (≈ 0.649 µM) | > 16 µg/mL | 2 µg/mL (≈ 5.19 µM) | 0.25 µg/mL (≈ 0.649 µM) | 8 µg/mL (≈ 20.8 µM) | 1 µg/mL (≈ 2.59 µM) | CN1CCN(c2cc3c(cc2F)c(=O)c(C(=O)O)cn3C2CC2)CC1C1CC1 (centres unmarked) [Example 125, 1-Cyclopropyl-7-(3-cyclopropyl-4-methyl-1-piperazinyl) -6-fluoro-1,4-dihydro-4-oxo-3-quinolinecarboxylic acid] | MIC ([30]; 18 hours): 0.06 µg/mL (≈ 0.156 µM); MIC ([30]; Escherichia coli, ATCC25922, 18 h, read-out: MIC): 0.03 µg/mL (≈ 0.0778 µM); MIC [20]: 0.06 µg/mL (≈ 0.156 µM); MIC (Escherichia coli LL 311): 0.06 µg/mL (≈ 0.156 µM); MIC [21]: 0.5 µg/mL (≈ 1.3 µM); MIC [22]: 0.25 µg/mL (≈ 0.649 µM); MIC [23]: 0.5 µg/mL (≈ 1.3 µM); MIC [24]: 0.5 µg/mL (≈ 1.3 µM); MIC [25]: 4 µg/mL (≈ 10.4 µM); MIC [26]: 16 µg/mL (≈ 41.5 µM); MIC ([27]; 18 hours): 0.5 µg/mL (≈ 1.3 µM); MIC [27, 31]: 0.25 µg/mL (≈ 0.649 µM); MIC [28]: > 16 µg/mL; MIC [29]: 1 µg/mL (≈ 2.59 µM)
0.25 µg/mL (≈ 0.631 µM) | 0.25 µg/mL (≈ 0.631 µM) | 8 µg/mL (≈ 20.2 µM) | 8 µg/mL (≈ 20.2 µM) | 0.12 µg/mL (≈ 0.303 µM) | 2 µg/mL (≈ 5.05 µM) | 2 µg/mL (≈ 5.05 µM) | > 16 µg/mL | 0.25 µg/mL (≈ 0.631 µM) | 4 µg/mL (≈ 10.1 µM) | 1 µg/mL (≈ 2.52 µM) | 4 µg/mL (≈ 10.1 µM) | 2 µg/mL (≈ 5.05 µM) | 1 µg/mL (≈ 2.52 µM) | 1 µg/mL (≈ 2.52 µM) | > 16 µg/mL | 16 µg/mL (≈ 40.4 µM) | 2 µg/mL (≈ 5.05 µM) | 32 µg/mL (≈ 80.7 µM) | 8 µg/mL (≈ 20.2 µM) | CCn1cc(C(=O)O)c(=O)c2cc(F)c(N3CCNC(c4cccnc4)C3)cc21 (centres unmarked) [Example 122] | MIC [20]: 1 µg/mL (≈ 2.52 µM); MIC (Escherichia coli LL 311): 0.25 µg/mL (≈ 0.631 µM); MIC [21]: 1 µg/mL (≈ 2.52 µM); MIC [22]: 0.25 µg/mL (≈ 0.631 µM); MIC [23]: 1 µg/mL (≈ 2.52 µM); MIC [24]: 1 µg/mL (≈ 2.52 µM); MIC [25]: 8 µg/mL (≈ 20.2 µM); MIC [26]: > 16 µg/mL; MIC ([27]; 18 hours): 1 µg/mL (≈ 2.52 µM); MIC [27, 31]: 0.5 µg/mL (≈ 1.26 µM); MIC [28]: > 16 µg/mL; MIC [29]: 4 µg/mL (≈ 10.1 µM)
